The values below come from ChEMBL document CHEMBL1221220, “Transport and signaling via the amino acid binding site of the yeast Gap1 amino acid transceptor” (Nat Chem Biol, 2009).

Positions count from the first letter of the chain named. The source made the active and inactive calls. The rule behind the calls is not given here.

Experiment [1] has as its system T1, General amino-acid permease GAP1 (Saccharomyces cerevisiae), P19145 [M401C].
T1 sequence (whole entry): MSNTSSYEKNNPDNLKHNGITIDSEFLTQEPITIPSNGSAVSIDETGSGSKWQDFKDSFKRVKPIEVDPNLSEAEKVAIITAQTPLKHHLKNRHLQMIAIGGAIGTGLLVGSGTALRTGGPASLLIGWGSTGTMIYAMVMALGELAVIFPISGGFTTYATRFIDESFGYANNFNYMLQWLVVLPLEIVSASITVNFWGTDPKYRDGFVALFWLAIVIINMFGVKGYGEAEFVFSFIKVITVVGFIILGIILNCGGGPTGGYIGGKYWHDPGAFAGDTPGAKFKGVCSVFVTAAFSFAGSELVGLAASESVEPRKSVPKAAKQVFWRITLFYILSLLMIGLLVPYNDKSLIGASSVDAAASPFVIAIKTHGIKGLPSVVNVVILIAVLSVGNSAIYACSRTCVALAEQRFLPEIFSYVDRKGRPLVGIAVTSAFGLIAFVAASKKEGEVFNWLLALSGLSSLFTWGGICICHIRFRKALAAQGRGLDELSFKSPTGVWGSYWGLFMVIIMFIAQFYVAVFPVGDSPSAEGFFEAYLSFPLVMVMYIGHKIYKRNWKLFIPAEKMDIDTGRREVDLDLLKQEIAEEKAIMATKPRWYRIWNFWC
In words: Activation of yeast Gap1 M401C mutant-mediated amino acid uptake at 10 mM.

For experiment [2], the system named is T2, General amino-acid permease GAP1 (Saccharomyces cerevisiae), P19145 [I382C].
T2 sequence (whole entry): T1 sequence (whole entry) with I382C, C401M
In words: Induction of yeast Gap1 I382C mutant-mediated trehalose activation at 10 mM.

The test system of experiment [3] is T3, General amino-acid permease GAP1 (Saccharomyces cerevisiae), P19145 [G390C].
T3 sequence (whole entry): T1 sequence (whole entry) with G390C, C401M
The experiment in a line: Induction of yeast Gap1 G390C mutant-mediated trehalose activation at 10 mM.

The test system is the same in experiment [4]. The experiment in a line: Induction of yeast Gap1 G390C mutant-mediated trehalose activation at 2 mM in presence of 10 mM MTSEA treated before compound addition.
In experiment [5] the test system is T4, General amino-acid permease GAP1 (Saccharomyces cerevisiae), P19145 [A393C].
T4 sequence (whole entry): T1 sequence (whole entry) with A393C, C401M
The experiment in a line: Induction of yeast Gap1 A393C mutant-mediated […] activation at 2 mM in presence of 10 mM MTSEA treated before compound addition.

Experiment [6] has as its system T1, General amino-acid permease GAP1 (Saccharomyces cerevisiae), P19145 [M401C]. The experiment in a line: Induction of yeast Gap1 M401C mutant-mediated trehalose activation at 2 mM in presence of 10 mM MTSEA treated before compound addition.
In experiment [7] the test system is General amino-acid permease GAP1 (Saccharomyces cerevisiae), P19145 [S388C]. The experiment in a line: Induction of yeast Gap1 S388C mutant-mediated trehalose activation at 2 mM in presence of 10 mM MTSEA treated before compound addition.
Sequence of General amino-acid permease GAP1 (Saccharomyces cerevisiae), P19145 [S388C] (P19145 whole entry S388C): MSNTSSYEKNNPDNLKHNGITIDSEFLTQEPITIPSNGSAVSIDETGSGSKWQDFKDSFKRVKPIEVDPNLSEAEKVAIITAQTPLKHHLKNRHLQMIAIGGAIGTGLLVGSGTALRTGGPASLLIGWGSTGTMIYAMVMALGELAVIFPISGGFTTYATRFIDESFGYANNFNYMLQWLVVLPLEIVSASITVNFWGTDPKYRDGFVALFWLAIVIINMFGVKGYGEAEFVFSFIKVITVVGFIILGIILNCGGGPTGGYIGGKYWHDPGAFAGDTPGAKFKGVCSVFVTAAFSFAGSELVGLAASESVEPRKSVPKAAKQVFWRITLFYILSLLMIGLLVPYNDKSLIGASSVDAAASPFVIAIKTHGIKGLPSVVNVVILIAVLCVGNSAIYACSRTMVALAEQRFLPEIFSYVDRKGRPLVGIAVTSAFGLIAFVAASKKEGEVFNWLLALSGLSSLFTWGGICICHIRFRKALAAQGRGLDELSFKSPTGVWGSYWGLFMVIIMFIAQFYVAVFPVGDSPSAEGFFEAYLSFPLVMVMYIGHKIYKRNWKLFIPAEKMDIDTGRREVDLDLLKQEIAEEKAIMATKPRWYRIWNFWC
Experiment [8] relates to T1, General amino-acid permease GAP1 (Saccharomyces cerevisiae), P19145 [M401C]. In words: Induction of yeast Gap1 M401C mutant-mediated amino acid uptake at 2 mM in presence of 10 mM MTSEA treated before compound addition.

As for `NC(=O)NCCC[C@H](N)C(=O)O`, the outcome in experiment [1], in experiment [2] and in experiment [3] was inactive. The inhibition entry in experiment [4], in experiment [5] and in experiment [6] was “Active” each time. The inhibition result in experiment [7] was “inactive”. In addition, the outcome in experiment [8] was Active.
